Experimental findings from patent US9642865B2, “Angiogenesis inhibitors” (THE JOHNS HOPKINS UNIVERSITY, priority 2004, dated 2017) are described below.

Structures are written as SMILES.

Experiment [1] relates to human umbilical vein endothelial cells (HUVEC). Description: HUVEC proliferation, [3H]-thymidine incorporation. The class given is cell-based. The conditions noted are these: guanine 10 μM and 20 μM. As for the experimental part:
(§1) 32,000 FDA drug approvals obtained by Freedom of Information Act requests were condensed to 3,400 unique drug formulations. Drugs were purchased from Sigma, Spectrum Chemicals, MP Biomedicals, The Johns Hopkins Hospital pharmacy, Biomol, and Tocris. 10 mM stock solutions were made using DMSO, water, or ethanol as solvents. Drugs were arrayed in 96-well plates and screened at a final concentration of 10 μM. Cells were incubated with drug for 36 h and proliferation was measured by pulsing with 1 μCi [^3H]-thymidine for 8 h followed by absorption onto glass filters and scintillation counting.
(§2) IC50 measurements were carried out in triplicate, and analyzed using four parameter logarithmic analysis. Values are presented+/−the standard error of the mean. P-values were calculated using the Student's T-test.
A library of 1,850 FDA-approved drugs and 600 drugs that entered the clinic via approval in a foreign country or phase II clinical trials was created. To discover new angiogenesis inhibitors among known drugs, the library was screened for inhibition of human umbilical vein endothelial cells (HUVEC) using [^3H]-thymidine incorporation. […] After eliminating known cytotoxic drugs such as taxol and colchicine or drugs that are restricted to topical use, several drugs remained. […]
A general note: Uptake of a labelled nucleoside into DNA is a usual measure of proliferation.

Experiment [2] concerns Jurkat T cells. Put plainly: Jurkat T-cell proliferation, [3H]-thymidine incorporation. It is filed as cell-based. The protocol: as §1, §2
MPA is an immunosuppressive drug widely used to prevent rejection of transplanted organs (Lipsky, J. J. (1996) Lancet 348, 1357-1359). The mechanism of action in the immune system is well established-MPA inhibits de novo biosynthesis of purines in T and B lymphocytes (Allison, A. C. & Eugui, E. M. (2000) Immunopharmacology 47, 85-118). […] Thus, a comparison of HUVEC to Jurkat T cells for sensitivity to MPA in the presence and absence of guanine was carried out. […] Addition of guanine at or above 20 μM rendered Jurkat T cells resistant to MPA. […]

The subject of experiment [3] is HUVEC. Description: Cell cycle analysis of HUVEC. It is filed as cell-based, human. The following applies: 1 μM MPA + 50 μM guanosine. An excerpt:
It has been shown that MPA causes cell cycle arrest in activated T and B lymphocytes at G1 (Laliberte, J., Yee, A., Xiong, Y. & Mitchell, B. S. (1998) Blood 91, 2896-2904). Therefore, the effect of MPA on endothelial cell cycle progression was examined.

Consider `COc1c(C)c2c(c(O)c1C/C=C(\C)CCC(=O)O)C(=O)OC2` [MPA, 6-(4-hydroxy-6-methoxy-7-methyl-3-oxo-1,3-dihydroisobenzofuran-5-yl)-4-methyl-hex-4-enoic acid], for which the “effect of exogenous guanine on MPA inhibition of HUVEC proliferation” value in experiment [1] is recorded as “partially reversed”. The “effect of exogenous guanine on MPA inhibition of Jurkat T-cell proliferation” value in experiment [2] (guanine 10 μM) is recorded as “unaffected”; in experiment [2] (guanine 20 μM and 50 μM) it was “completely reversed”. The “effect of guanosine on the cell cycle effect of MPA” value in experiment [3] was “completely reversed”.
